ChEMBL document CHEMBL1201862, “PubChem BioAssay data set” (2004)
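A five-concentration, 48-hour dose response in 96-well plates underlies each endpoint, interpolated linearly between surrounding concentrations. GI50 marks 50% less growth.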 Activity calls are given as the source filed them. Cut-off read from the data, not from the text of the source: active = GI50 up to about 1.1 µM and inactive = higher.

Key:
Test in all cases: NCI anticancer screen, dose series, 48 h
UO-31 = test system: UO-31
BT-549 = test system: BT-549
A549 = test system: A549
MDA-MB-231 = test system: MDA-MB-231
M14 = test system: M14
LOX IMVI = test system: LOX IMVI
MCF7 = test system: MCF7
NCI/ADR-RES = test system: NCI/ADR-RES
SW-620 = test system: SW-620
MDA-MB-435 = test system: MDA-MB-435
SNB-75 = test system: SNB-75
MOLT-4 = test system: MOLT-4
SF-268 = test system: SF-268
EKVX = test system: EKVX
K562 = test system: K562
SF-539 = test system: SF-539
NCI-H23 = test system: NCI-H23
OVCAR-8 = test system: OVCAR-8
SN12C = test system: SN12C
COLO 205 = test system: COLO 205
NCI-H460 = test system: NCI-H460
OVCAR-3 = test system: OVCAR-3
CAKI-1 = test system: CAKI-1
T47D = test system: T47D
SK-MEL-2 = test system: SK-MEL-2
RXF 393 = test system: RXF 393
SK-MEL-28 = test system: SK-MEL-28
PC-3 = test system: PC-3
NCI-H522 = test system: NCI-H522
UACC-257 = test system: UACC-257
CCRF-CEM = test system: CCRF-CEM
SNB-19 = test system: SNB-19
IGROV-1 = test system: IGROV-1
SK-OV-3 = test system: SK-OV-3
RPMI-8226 = test system: RPMI-8226
NCI-H226 = test system: NCI-H226
HOP-62 = test system: HOP-62
HCC 2998 = test system: HCC 2998
DU-145 = test system: DU-145
HL-60 = test system: HL-60
HT-29 = test system: HT-29
OVCAR-4 = test system: OVCAR-4
KM12 = test system: KM12
HCT-15 = test system: HCT-15
Malme-3M = test system: Malme-3M
HOP-92 = test system: HOP-92
OVCAR-5 = test system: OVCAR-5
786-0 = test system: 786-0
SR = test system: SR
HCT-116 = test system: HCT-116
U-251 = test system: U-251
Hs-578T = test system: Hs-578T
SK-MEL-5 = test system: SK-MEL-5
SF-295 = test system: SF-295
TK-10 = test system: TK-10
ACHN = test system: ACHN
A498 = test system: A498
MDA-N = test system: MDA-N
UACC-62 = test system: UACC-62

## COC(=O)CCC(C)[C@H]1CCC2C3C(C[C@H](OC(C)=O)[C@@]21C)[C@@]1(C)CCC2(C[C@H]1C[C@H]3OC(C)=O)OOC1(CCC(C(C)(C)C)CC1)OO2 (some centres not stated)
UO-31
  GI50: 12.4 µM (inactive)
BT-549
  GI50: 33.3 µM (inactive)
A549
  GI50: 7.24 µM (inactive)
MDA-MB-231
  GI50: 46.3 µM (inactive)
M14
  GI50: > 100 µM (inactive)
LOX IMVI
  GI50: 5.25 µM (inactive)
MCF7
  GI50: 31.4 µM (inactive)
NCI/ADR-RES
  GI50: > 100 µM (inactive)
SW-620
  GI50: 12.3 µM (inactive)
MDA-MB-435
  GI50: 56 µM (inactive)
SNB-75
  GI50: 37.9 µM (inactive)
MOLT-4
  GI50: 7.52 µM (inactive)
SF-268
  GI50: 18.6 µM (inactive)
EKVX
  GI50: 4.12 µM (inactive)
K562
  GI50: 8.69 µM (inactive)
SF-539
  GI50: 68.7 µM (inactive)
NCI-H23
  GI50: 9.42 µM (inactive)
OVCAR-8
  GI50: 12.4 µM (inactive)
SN12C
  GI50: 58.2 µM (inactive)
COLO 205
  GI50: > 100 µM (inactive)
NCI-H460
  GI50: 5.65 µM (inactive)
OVCAR-3
  GI50: 6.85 µM (inactive)
CAKI-1
  GI50: 12.8 µM (inactive)
T47D
  GI50: 5.71 µM (inactive)
SK-MEL-2
  GI50: > 100 µM (inactive)
RXF 393
  GI50: > 100 µM (inactive)
SK-MEL-28
  GI50: > 100 µM (inactive)
PC-3
  GI50: 6.7 µM (inactive)
NCI-H522
  GI50: 21 µM (inactive)
UACC-257
  GI50: 31.8 µM (inactive)
CCRF-CEM
  GI50: 5.5 µM (inactive)
SNB-19
  GI50: > 100 µM (inactive)
IGROV-1
  GI50: 17.1 µM (inactive)
SK-OV-3
  GI50: > 100 µM (inactive)
RPMI-8226
  GI50: 3.91 µM (inactive)
NCI-H226
  GI50: 59 µM (inactive)
HOP-62
  GI50: 9.73 µM (inactive)
HCC 2998
  GI50: 46.3 µM (inactive)
DU-145
  GI50: > 100 µM (inactive)
HL-60
  GI50: 9.4 µM (inactive)
HT-29
  GI50: > 100 µM (inactive)
OVCAR-4
  GI50: 15.6 µM (inactive)
KM12
  GI50: 14.1 µM (inactive)
HCT-15
  GI50: 50 µM
Malme-3M
  GI50: 64.3 µM (inactive)
HOP-92
  GI50: 6.59 µM (inactive)
OVCAR-5
  GI50: > 100 µM (inactive)
786-0
  GI50: 13.5 µM (inactive)
SR
  GI50: 4.45 µM (inactive)
HCT-116
  GI50: 3.97 µM (inactive)
U-251
  GI50: 6.73 µM (inactive)
Hs-578T
  GI50: 5.43 µM (inactive)
SK-MEL-5
  GI50: 22.6 µM (inactive)
SF-295
  GI50: 7.53 µM (inactive)
TK-10
  GI50: 17.7 µM (inactive)
ACHN
  GI50: 5.7 µM (inactive)
A498
  GI50: > 100 µM (inactive)

## O=c1c2cc(-c3ccccc3)cnc2sn1-c1ccc(Oc2ccccc2)cc1
UO-31
  GI50: 47 µM (inactive)
BT-549
  GI50: 23.2 µM (inactive)
A549
  GI50: 19.5 µM (inactive)
MDA-MB-231
  GI50: 14.5 µM (inactive)
M14
  GI50: 46.3 µM (inactive)
MCF7
  GI50: 52.5 µM (inactive)
NCI/ADR-RES
  GI50: 27 µM (inactive)
SW-620
  GI50: 37.8 µM (inactive)
MDA-MB-435
  GI50: 41.1 µM (inactive)
SNB-75
  GI50: 32 µM (inactive)
MOLT-4
  GI50: 49.2 µM (inactive)
SF-268
  GI50: 51.4 µM (inactive)
EKVX
  GI50: 68.5 µM (inactive)
K562
  GI50: > 100 µM (inactive)
SF-539
  GI50: 50.4 µM (inactive)
NCI-H23
  GI50: 61 µM (inactive)
OVCAR-8
  GI50: 26.9 µM (inactive)
SN12C
  GI50: 31.3 µM (inactive)
COLO 205
  GI50: > 100 µM (inactive)
NCI-H460
  GI50: > 100 µM (inactive)
OVCAR-3
  GI50: 31.5 µM (inactive)
CAKI-1
  GI50: 61.9 µM (inactive)
T47D
  GI50: 63 µM (inactive)
SK-MEL-2
  GI50: > 100 µM (inactive)
RXF 393
  GI50: 19.1 µM (inactive)
SK-MEL-28
  GI50: > 100 µM (inactive)
PC-3
  GI50: 20.4 µM (inactive)
NCI-H522
  GI50: 34.4 µM (inactive)
UACC-257
  GI50: 67 µM (inactive)
CCRF-CEM
  GI50: 27.3 µM (inactive)
MDA-N
  GI50: 28.4 µM (inactive)
SNB-19
  GI50: 19.2 µM (inactive)
IGROV-1
  GI50: 32.6 µM (inactive)
SK-OV-3
  GI50: > 100 µM (inactive)
RPMI-8226
  GI50: 53.1 µM (inactive)
NCI-H226
  GI50: 87.5 µM (inactive)
HOP-62
  GI50: 22.1 µM (inactive)
HCC 2998
  GI50: 73.5 µM (inactive)
DU-145
  GI50: 80.9 µM (inactive)
HL-60
  GI50: > 100 µM (inactive)
HT-29
  GI50: 23.4 µM (inactive)
OVCAR-4
  GI50: 19.9 µM (inactive)
KM12
  GI50: 48.5 µM (inactive)
HCT-15
  GI50: 56.5 µM
Malme-3M
  GI50: 92.5 µM (inactive)
HOP-92
  GI50: 30.7 µM (inactive)
OVCAR-5
  GI50: 65.2 µM (inactive)
786-0
  GI50: 17.3 µM (inactive)
SR
  GI50: > 100 µM (inactive)
HCT-116
  GI50: 51.9 µM (inactive)
U-251
  GI50: 23.6 µM (inactive)
UACC-62
  GI50: 26.9 µM (inactive)
SF-295
  GI50: 31 µM (inactive)
ACHN
  GI50: 66.8 µM (inactive)
A498
  GI50: 25.3 µM (inactive)
